The values that follow come from patent US10588978B2, “Pharmaceutical composition containing imidazoline derivative” (priority 2016, dated 2020).

Structures are written as SMILES. Read-outs that look alike come from different tables or passages of the source.

Data set [1] is described as follows: Studies on stability of the compound. Format: physicochemical.
The test system of data set [2] is five major subtypes of CYP450. To be noted: all five subtypes; read-out: inhibition half lives on five major subtypes of CYP450; cited from earlier work.
Data set [3] is described as follows: Solubility of the compound in compositions with conventional auxiliaries. Format: physicochemical.
The conditions of data set [4]: same dose, same solvent; cited from earlier work.
For data set [5] the following is noted: same dose, same solvent; cited from earlier work. This is another data set of the same source.
For data set [6], the target named is T1, AR (Homo sapiens, UniProt P10275).
T1 sequence (P10275 1-920): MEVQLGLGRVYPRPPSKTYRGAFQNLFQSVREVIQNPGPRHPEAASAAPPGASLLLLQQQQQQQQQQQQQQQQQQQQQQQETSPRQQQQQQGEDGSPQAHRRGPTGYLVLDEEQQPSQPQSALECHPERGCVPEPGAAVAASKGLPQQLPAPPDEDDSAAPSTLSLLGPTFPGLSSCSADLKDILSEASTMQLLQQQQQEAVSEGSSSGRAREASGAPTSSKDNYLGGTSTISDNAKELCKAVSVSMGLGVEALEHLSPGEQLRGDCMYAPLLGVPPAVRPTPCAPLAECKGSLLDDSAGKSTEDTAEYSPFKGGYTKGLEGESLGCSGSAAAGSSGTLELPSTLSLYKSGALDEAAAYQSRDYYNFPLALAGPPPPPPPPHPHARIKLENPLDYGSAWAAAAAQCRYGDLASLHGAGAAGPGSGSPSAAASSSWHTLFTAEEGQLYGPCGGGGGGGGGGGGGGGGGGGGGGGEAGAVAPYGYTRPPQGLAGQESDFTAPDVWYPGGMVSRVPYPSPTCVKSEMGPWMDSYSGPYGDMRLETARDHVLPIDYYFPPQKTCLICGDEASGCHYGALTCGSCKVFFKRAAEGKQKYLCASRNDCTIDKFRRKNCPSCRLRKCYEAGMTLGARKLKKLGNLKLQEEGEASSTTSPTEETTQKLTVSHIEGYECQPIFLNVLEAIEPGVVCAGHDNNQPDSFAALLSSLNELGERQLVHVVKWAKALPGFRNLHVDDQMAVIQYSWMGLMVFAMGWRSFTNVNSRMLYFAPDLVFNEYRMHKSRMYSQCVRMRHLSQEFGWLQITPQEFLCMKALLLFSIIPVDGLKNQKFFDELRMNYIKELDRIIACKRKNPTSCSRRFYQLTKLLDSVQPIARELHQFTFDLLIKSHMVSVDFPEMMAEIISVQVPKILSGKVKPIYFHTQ
To be noted: cited from earlier work.

Data set [7] deals with T1, AR. To be noted: cited from earlier work. The source holds these as a separate data set.
For data set [8] the following is noted: mice; relative to MDV-3100; cited from earlier work.
For data set [9], the system named is AIPC. To be noted: mouse; cited from earlier work.
The test system of another data set is tumor cell growth. To be noted: cited from earlier work.
Data set [10] concerns AIPC. To be noted: human; cited from earlier work.

As to `CC1(C)C(=O)N(c2ccc(C#N)c(C(F)(F)F)c2)C(=S)N1c1ccc(OC[C@@H](O)CO)cc1` [compound of formula (I), (S)-4-(3-(4-(2,3-dihydroxypropoxy)phenyl)-4,4-dimethyl-5-carbonyl-2-thioimidazolin-1-yl)-2-(trifluoromethyl)benzonitrile], the “stability of the compound” value in [1] is “poor stability”. Also, the IC50 in [2] is above 50 µM. In addition, the “solubility in compositions prepared with conventional auxiliaries” value in data set [3] was “poorly soluble”. Moreover, the “in vivo exposure in dogs relative to MDV-3100” value in data set [4] is on record as “more than six times that of MDV-3100”. In addition, the “in vivo exposure in rats relative to MDV-3100” value in [5] is on record as “comparable to that of MDV-3100”. In addition, the AR agonist activity entry on AR [6] (at 3 μM) and on AR [6] (at 10 μM) was “no AR agonist activity” in each case. Further, the “activity in vitro relative to MDV-3100” value on AR [7] is on record as “slightly better than that of MDV-3100”. In [8], the “ratio of the drug concentration in brain tissue to the drug concentration in plasma” value is recorded as “much lower than that of MDV-3100”.

For `CNC(=O)c1ccc(N2C(=S)N(c3ccc(C#N)c(C(F)(F)F)c3)C(=O)C2(C)C)cc1F` [MDV-3100], the “inhibition of growth of AIPC” value with AIPC [9] and in the data set with AIPC [10] was “can inhibit the growth of AIPC” throughout. Also, the “effect of promoting tumor cell growth” value with tumor cell growth was “no effect of promoting tumor cell growth”.
